Assay results reported in US20100216749A1, “Combination Therapy for Neuroprotection” (S.H. PHARMA., LTD, priority 2007, published 2010).
Where “and” joins values, the source holds several entries; their conditions need not be identical. Equal entries are not always repeated.

Columns and labels:
[1] = system: middle cerebral artery occlusion (MCAO) stroke animal model; assay: Cerebral infarction volume by TTC staining of brain sections after 1 h MCAO/reperfusion; type: in vivo, rat; settings: for cerebral infarction inhibited by: 4 hours after reperfusion (FIG. 11); for concentration at which the size of cerebral infarction was inhibited most effectively: i.v. 1, 2, 5, 10 and 20 mg/kg
[2] = system: middle cerebral artery occlusion (MCAO) stroke animal model; assay: Evaluation of neurologic deficit (static reflex test and forelimb placing test) after MCAO/reperfusion; type: in vivo, rat; settings: for neuronal damage / motor skill deficit improved: administered 6 hours after MCAO/reperfusion, Example 1 (FIG. 10)
Method: Forelimb placing was evaluated by the method described (0: immediate and complete placing, 1: incomplete and/or delayed placing, 2: no placing) (De Ryck M. et al., Stroke 20; 1388-1390). Points of static reflex and forelimb placing of each animal were summed.

[3] = system: middle cerebral artery occlusion (MCAO) stroke animal model; assay: Rota-rod test (motor skill) after MCAO/reperfusion; settings: i.v. 5 mg/kg; for motor skill recovered to, by normal motor skill: 6 hours after MCAO/reperfusion (FIG. 9)
Method: Motor skill of a rat damaged by MCAO was investigated by measuring retention time on Rota-rod (Rota-rod test).
Retention time of each rat on Rota-rod at 5 rpm was measured for 24 hours after MCAO for 1 hour. Next, each rat was also forced to stay on Rota-rod operating at the speeds of 10 rpm and 15 rpm and retention time of each rat was measured at one hour interval. […] The points herein were obtained from repeated experiments, which were performed at 1 hour interval at the speeds of 10 rpm and 15 rpm.

stroke animal model = settings: cited from earlier work
[4] = i.v. 5 mg/kg each drug, 6 hours after reperfusion (Examples 3-8)
[5] = administered 6 hours after neuronal damage (Examples 4-7)
[6] = administered 4 hours after neuronal damage, Example 2 (FIG. 13)
[7] = i.v. 2.5 mg/kg each drug, 6 hours after reperfusion (Examples 9-12)
[8] = 6 hours after reperfusion (FIG. 23)
[9] = i.v. 2.5 mg/kg each drug, 6 hours after reperfusion (Examples 9-12), 2.5 mg/kg

In the case of “chloro-2-hydroxy-5-(2-(4-methoxyphenoxy)ethylamino)benzoic acid”, the “volume of cerebral infarction reduced by” value [1, 4] is reported as 53% and the “neuronal damage improved / neurologic deficit recovered” value [2, 5] is reported as “very weak”.
With “chloro-2-hydroxy-5-(2,3,5,6-tetrafluoro-4-(trifluoromethyl)benzylamino)benzoate” the “cerebral infarction inhibited by” value ([1]; i.v. 5 mg/kg each drug) was 30% and the “neuronal damage improved / neurologic deficit recovered” value [2, 6] was “very weak”.
With “chloro-5-(2-(4-chlorophenoxy)ethylamino)-2-hydroxybenzoic acid” the “volume of cerebral infarction reduced by” value [1, 4] was 55% and the “neuronal damage improved / neurologic deficit recovered” value [2, 5] was “very weak”.
With `CC(=O)Oc1ccccc1C(=O)O` [acetylsalicylic acid] the “motor skill recovered to, by normal motor skill” value [3] was 30% and the “neuronal damage / motor skill deficit improved” value [2] was “very weak”.
With “chloro-2-hydroxy-5-(4-(trifluoromethyl)phenylethylamino)benzoate” the “volume of cerebral infarction reduced by” value [1, 4] was 58%.
In the case of “chloro-5-(2-(2,4-dichlorophenoxy)ethylamino)-2-hydroxybenzoic acid”, the “volume of cerebral infarction reduced by” value [1, 4] is reported as 61% and the “neuronal damage improved / neurologic deficit recovered” value [2, 5] is reported as “very weak”.
In the case of `CC(=O)Oc1cc(C(F)(F)F)ccc1C(=O)O` [2-acetoxy-4-(trifluoromethyl)benzoic acid], the “volume of cerebral infarction reduced by” value [1, 7] is reported as 23%.
For ethyl pyruvate (pyruvoyloxyethane) [EP], the “size of infarction reduced” value (stroke animal model; administered 24 hours after ischemia-reperfusion) is listed as “approximately 20%”, the “size of infarction reduced to” value (stroke animal model; administered into the abdominal cavity 12 hours after ischemia-reperfusion) is listed as “less than 50%” and the “infarcted regions (TTC staining) compared with the control group” value ([1]; 5 mg/kg, 6 hours after reperfusion (FIG. 1)) is listed as “significantly decreased”. For the same compound, the “volume of ischemia region” value ([1]; i.v. 1 mg/kg, 6 hours after reperfusion, 1 h MCAO (FIG. 2)) was “not changed”, the “cerebral infarction inhibited by” value ([1]; i.v. 5 mg/kg each drug) was 48% and the “volume of cerebral infarction reduced by” value [1, 4] was 66%. The “infarction volume reduced to” value ([1]; i.v. 5 mg/kg, 30 minutes after reperfusion (FIG. 3)) was 17.5%, the “infarction volume reduced to” value ([1]; i.v. 5 mg/kg, 30 minutes before reperfusion (FIG. 3)) was 9.0% and the “infarction volume reduced to” value ([1]; i.v. 5 mg/kg, 6 hours after reperfusion (FIG. 3)) was 34.0%. The “volume of ischemia region reduced to, by the control animal” value ([1]; i.v. 5 mg/kg, 6 hours after reperfusion, 1 h MCAO (FIG. 2)) was 33.6%, the “infarction volume reduced to” value ([1]; i.v. 5 mg/kg, 9 hours after reperfusion (FIG. 3)) was 58.7% and the “infarction volume reduced to” value ([1]; i.v. 5 mg/kg, 12 hours after reperfusion (FIG. 3)) was 58.0%. For the same compound, the “infarction inhibiting effect when concentration increased” value ([1]; i.v. 10 mg/kg each versus 5 mg/kg, 6 hours after reperfusion (FIG. 23)) was “the effect was not increased”, the “volume of ischemia region reduced to, by the control animal” value ([1]; i.v. 10 mg/kg, 6 hours after reperfusion, 1 h MCAO (FIG. 2)) was 41.7% and the “volume of ischemia region reduced to, by the control animal” value ([1]; i.v. 20 mg/kg, 6 hours after reperfusion, 1 h MCAO (FIG. 2)) was 61.6%. For the same compound, the “concentration at which the size of cerebral infarction was inhibited most effectively” value [1, 8] was 5 mg/kg, the “period spent on Rota-rod” value ([3]; 6 hours after MCAO/reperfusion (FIG. 4)) was “significantly longer period on Rota-rod” and the “motor skill recovered to, by normal motor skill” value [3] was 70%. For the same compound, the “neuronal damage improved / neurologic deficit recovered” value [2, 6] was 40%, the “neuronal damage / motor skill deficit improved” value [2] was 60% and the “neuronal damage improved / neurologic deficit recovered” value [2, 5] was 40%. For the same compound, the “neurologic deficit after MCAO/reperfusion” value ([2]; two days after MCAO/reperfusion (FIG. 5)) was “suppress neurologic deficit”.
In the case of “chloro-2-hydroxy-5-(2-(2,4,5-trichlorophenoxy)ethylamino)benzoic acid”, the “volume of cerebral infarction reduced by” value [1, 4] is reported as 64% and the “neuronal damage improved / neurologic deficit recovered” value [2, 5] is reported as “very weak”.
In the case of `CCNC(=O)C(C)=O` [pyruvoylaminoethane], the “volume of cerebral infarction reduced by” value [1, 9] is reported as 20% and 25%.
In the case of `CNCCC(Oc1ccc(C(F)(F)F)cc1)c1ccccc1` (centres unmarked) [fluoxetine chloride, N-methyl-[4-(trifluoromethyl)phenoxy]benzenepropaneamine], the “volume of cerebral infarction reduced by” value [1, 4] is reported as 59% and the “concentration at which the size of cerebral infarction was inhibited most effectively” value [1, 8] is reported as 5 mg/kg.
With pyruvoylamininediethane the “volume of cerebral infarction reduced by” value [1, 9] was 40% and 31%.
In the case of `O=C(O)c1ccc(C(F)(F)F)cc1O` [2-hydroxy-4-trifluoromethylbenzoic acid], the “volume of cerebral infarction reduced by” value [1, 7] is reported as 30%.
